Here are results for three compounds from US8959984B2, “Proteome-wide quantification of small molecule binding to cellular target proteins” (priority 2007, dated 2015).

For assay [1], the target named is YES (Homo sapiens, UniProt P07947). Put plainly: binding to immobilized V16742 (IVA1/IVA2, HeLa lysate, MS).
Assay [2] deals with T1, ACAD10 (Homo sapiens, UniProt Q6JQN1).
T1 sequence (Q6JQN1 1-1059): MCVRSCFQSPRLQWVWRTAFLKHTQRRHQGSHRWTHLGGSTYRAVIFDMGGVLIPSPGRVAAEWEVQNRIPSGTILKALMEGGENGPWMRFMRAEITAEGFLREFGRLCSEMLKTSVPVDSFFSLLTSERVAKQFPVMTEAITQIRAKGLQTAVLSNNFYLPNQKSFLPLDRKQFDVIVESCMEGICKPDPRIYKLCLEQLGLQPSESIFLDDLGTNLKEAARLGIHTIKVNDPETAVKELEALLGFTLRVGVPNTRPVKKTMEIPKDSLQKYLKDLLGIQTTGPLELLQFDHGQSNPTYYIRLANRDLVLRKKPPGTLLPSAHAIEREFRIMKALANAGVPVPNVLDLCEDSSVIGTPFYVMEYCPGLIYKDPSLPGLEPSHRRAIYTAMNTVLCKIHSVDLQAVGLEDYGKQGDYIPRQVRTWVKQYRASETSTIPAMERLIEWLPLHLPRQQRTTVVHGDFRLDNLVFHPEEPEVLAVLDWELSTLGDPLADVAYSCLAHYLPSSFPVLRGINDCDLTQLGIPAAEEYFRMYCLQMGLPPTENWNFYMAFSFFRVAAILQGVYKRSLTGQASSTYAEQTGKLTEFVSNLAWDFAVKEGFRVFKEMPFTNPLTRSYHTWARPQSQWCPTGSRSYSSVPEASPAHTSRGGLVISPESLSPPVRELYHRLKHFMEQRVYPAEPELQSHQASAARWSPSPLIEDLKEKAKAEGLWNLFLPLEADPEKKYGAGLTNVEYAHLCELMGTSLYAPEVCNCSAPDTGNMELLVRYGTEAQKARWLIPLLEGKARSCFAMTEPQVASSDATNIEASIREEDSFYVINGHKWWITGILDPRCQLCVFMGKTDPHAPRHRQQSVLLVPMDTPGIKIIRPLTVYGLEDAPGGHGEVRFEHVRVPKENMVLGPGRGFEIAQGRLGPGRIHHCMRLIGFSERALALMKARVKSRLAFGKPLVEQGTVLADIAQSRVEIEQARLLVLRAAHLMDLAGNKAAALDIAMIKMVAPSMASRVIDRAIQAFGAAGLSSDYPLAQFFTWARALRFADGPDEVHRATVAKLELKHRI
The assay can be described thus: binding to AX14596 beads (HeLa lysate, SILAC MS).

Assay [3] concerns the target T2, PHKg2 (Homo sapiens, UniProt P15735).
T2 construct: endogenous in cells; host or cells: HeLa S3
T2 sequence (P15735 1-406): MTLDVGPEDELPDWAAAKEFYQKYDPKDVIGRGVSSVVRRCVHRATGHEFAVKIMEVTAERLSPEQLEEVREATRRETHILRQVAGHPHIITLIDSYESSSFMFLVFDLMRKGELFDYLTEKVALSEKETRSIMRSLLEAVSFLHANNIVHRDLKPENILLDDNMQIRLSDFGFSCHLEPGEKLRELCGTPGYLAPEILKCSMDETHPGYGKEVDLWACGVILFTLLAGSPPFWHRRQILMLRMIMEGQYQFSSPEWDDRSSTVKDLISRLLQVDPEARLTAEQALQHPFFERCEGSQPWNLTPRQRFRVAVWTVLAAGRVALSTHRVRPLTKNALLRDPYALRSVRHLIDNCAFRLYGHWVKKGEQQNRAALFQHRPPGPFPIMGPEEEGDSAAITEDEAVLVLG
Put plainly: binding to immobilized V16742 (IVA1/IVA2, HeLa lysate, MS).

Molecules are shown by their SMILES. Where two headings read alike, the source gives them in different places.

YES, sequence (P07947 whole entry): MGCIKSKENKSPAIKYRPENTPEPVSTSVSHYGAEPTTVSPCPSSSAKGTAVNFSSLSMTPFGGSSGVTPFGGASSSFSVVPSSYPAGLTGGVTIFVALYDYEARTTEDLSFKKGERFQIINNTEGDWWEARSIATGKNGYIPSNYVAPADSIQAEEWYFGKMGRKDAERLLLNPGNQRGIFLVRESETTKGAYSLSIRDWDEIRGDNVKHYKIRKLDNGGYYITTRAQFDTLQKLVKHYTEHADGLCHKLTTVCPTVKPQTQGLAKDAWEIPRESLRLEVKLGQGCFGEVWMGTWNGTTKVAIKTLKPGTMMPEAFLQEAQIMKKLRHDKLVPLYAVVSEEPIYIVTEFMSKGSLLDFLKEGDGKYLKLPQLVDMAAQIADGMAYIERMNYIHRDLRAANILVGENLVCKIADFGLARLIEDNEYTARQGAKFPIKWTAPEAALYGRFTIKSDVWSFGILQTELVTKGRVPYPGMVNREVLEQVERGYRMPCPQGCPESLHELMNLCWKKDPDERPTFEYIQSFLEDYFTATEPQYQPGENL

As for `CC(C)n1c(=O)ccc2cnc(Nc3ccc(OCCN)cc3)nc21` [compound 16742], the “Percent bound at 1.87 μM 16742 conc” value in assay [1] (EXPERIMENT 1) turned out to be 4.07%; in assay [1] (EXPERIMENT 2) it was 3.61%. Moreover, the “Percent bound at 8.74 μM 16742 conc” value is listed as 25.17% in assay [1] (EXPERIMENT 1) and 15.31% in assay [1] (EXPERIMENT 2). In addition, the “Percent bound at 52 μM 16742 conc” value in assay [1] (EXPERIMENT 1) is listed as 62.69%; in assay [1] (EXPERIMENT 2) it was 54.74%. Besides, the Kd in assay [1] (EXPERIMENT 1, read-out: Kd) turned out to be 29.3 µM; in assay [1] (EXPERIMENT 2, read-out: Kd), 44.3 µM; in assay [1] (read-out: Kd Avg), 36.8 µM.
As to `COc1cc2ncnc(Nc3ccc(F)c(Cl)c3)c2cc1OCCCN` [AX14596], in assay [2], affinity was put at a Ki of 108 µM, the “r (3 mg/1 mg lysate)” value turned out to be 8.45, the “r (5 h/2.5 h inc. time)” value is listed as 0.48 and the “rAVERAGE (2. inc/1. inc)” value is listed as 0.52. Also, in assay [2], the “rAVERAGE (control/1. inc)” value is 0.08.
Turning to `CC(C)n1c(=O)ccc2cnc(Nc3ccc(OCCN)cc3)nc21` [V16742], the “Percent bound at various 16742 conc” value in assay [3] (Experiment 1, 52 μM 16742) is 59.42%; in assay [3] (Experiment 2, 1.87 μM 16742), 1.94%; in assay [3] (Experiment 2, 8.74 μM 16742), 2.29%; in assay [3] (Experiment 2, 52 μM 16742), 27.11%. Also, in assay [3] (Experiment 2), binding was characterised by a dissociation constant (Kd) of 146 µM.

Broadly, the Kd is the free concentration of one partner at which half of the binding sites on the other are occupied at equilibrium, for simple one-to-one binding. The Ki is a dissociation constant, usually derived from enzyme kinetics or from competition with a known ligand. A high value points to lower affinity.
